Data published in patent US20110313015A1, “Fludioxonil Derivatives” (Bayer CropScience AG, priority 2010, published 2011).

Tested on: common bent (Agrostis capillaris)
Experiment: Herbicidal early post-emergence action (microtitre plate, visual assessment of damage)
Type: in vivo
Settings: application rate 1900 g/ha, assessed after 10 days vs untreated controls, 100% = plants have died, 0% = like control plants
Description: Seeds of mono- and dicotyledonous harmful plants are, in a microtitre plate, placed into sand. The compounds according to the invention, formulated as emulsion concentrates (EC), are then applied as an aqueous emulsion using spray nozzles adapted to the uHTVS to the germinated plants. After the treatment, the microtitre plates are placed in a climatized chamber and kept under good growth conditions for the test plants. The visual assessment of the damage to the test plants is carried out after a trial period of 10 days by comparison with untreated controls (herbicidal activity in percent (%): 100% activity=the plants have died, 0% activity=like control plants).

COC(=O)CCn1cc(C#N)c(-c2cccc3c2OC(F)(F)O3)c1 [No. 1]
herbicidal activity: 100%
